The molecules below were run against T1, Human CARM1 (PRMT4) (Homo sapiens, UniProt Q86X55) (assay: CARM1 biochemical assay (3H-SAM Flashplate, peptide substrate)).
T1 construct: Flag-CARM1-His was eluted with 200 ug/ml FLAG peptide in buffer A; made in house; host or cells: HEK 293F cells (BacMam virus, pFastBacMam)
T1 sequence (Q86X55 with tags, fused parts or gaps isoform Q86X55-1): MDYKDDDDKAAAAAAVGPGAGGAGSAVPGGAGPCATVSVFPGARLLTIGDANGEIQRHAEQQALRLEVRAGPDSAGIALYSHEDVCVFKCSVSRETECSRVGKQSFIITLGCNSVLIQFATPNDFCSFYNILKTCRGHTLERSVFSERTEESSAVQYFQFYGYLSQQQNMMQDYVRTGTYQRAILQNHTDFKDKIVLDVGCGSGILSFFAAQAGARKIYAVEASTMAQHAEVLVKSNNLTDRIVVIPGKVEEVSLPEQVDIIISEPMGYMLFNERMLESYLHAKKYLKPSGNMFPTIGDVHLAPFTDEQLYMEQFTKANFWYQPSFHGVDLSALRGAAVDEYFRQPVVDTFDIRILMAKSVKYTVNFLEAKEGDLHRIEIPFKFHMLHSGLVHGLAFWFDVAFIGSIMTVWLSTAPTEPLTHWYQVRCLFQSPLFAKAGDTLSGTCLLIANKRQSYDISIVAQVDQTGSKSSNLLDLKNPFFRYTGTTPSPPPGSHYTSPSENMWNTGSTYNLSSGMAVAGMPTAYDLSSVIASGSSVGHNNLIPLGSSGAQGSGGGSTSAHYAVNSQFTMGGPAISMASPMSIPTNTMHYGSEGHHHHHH
Text: General Materials. S-adenosylmethionine (SAM), S-adenosylhomocysteine (SAH), bicine, Tween20, dimethylsulfoxide (DMSO), bovine skin gelatin (BSG), sodium butyrate and Tris(2-carboxyethyl)phosphine hydrochloride solution (TCEP) were purchased from Sigma-Aldrich at the highest level of purity possible. ^3H-SAM was purchase from American Radiolabeled Chemicals with a specific activity of 80 Ci/mmol. 384-well streptavidin Flashplates were purchased from PerkinElmer.
Substrates. Peptide representative of human histone H3 residues 16-30 was synthesized with an N-terminal linker-affinity tag motif and a C-terminal amide cap by 21st Century Biochemicals.
Protein Expression. Recombinant baculovirus were generated according to Bac-to-Bac kit instructions (Life Technologies). […] Infections were carried out at 37° C. for 48 hours, harvested by centrifugation, and stored at −80° C. for purification.
Protein Purification. […] Column was washed with 500 mM NaCl in buffer A and Flag-CARM1-His was eluted with 200 ug/ml FLAG peptide in buffer A. Pooled fractions were dialyzed in 20 mM Tris, 150 mM NaCl, 5% glycerol and 1 mM DTT, pH 7.8.
General Procedure for CARM1 Enzyme Assays on Peptide Substrates. The assays were all performed in a buffer consisting of 20 mM Bicine (pH=7.6), 1 mM TCEP, 0.005% BSG, and 0.002% Tween 20, prepared on the day of use. […] DMSO (1 ul) was added to Columns 11, 12, 23, 24, rows A-H for the maximum signal control and 1 ul of SAH, a known product and inhibitor of CARM1, was added to columns 11, 12, 23, 24, rows I-P for the minimum signal control. A cocktail (40 ul) containing the CARM1 enzyme was added by Multidrop Combi (Thermo-Fisher). The compounds were allowed to incubate with CARM1 for 30 min at room temperature, then a cocktail (10 ul) containing ^3H-SAM and peptide was added to initiate the reaction (final volume=51 ul). […] The assays were stopped by the addition of non-radiolabeled SAM (10 ul) to a final concentration of 300 uM, which dilutes the ^3H-SAM to a level where its incorporation into the peptide substrate is no longer detectable. 50 ul of the reaction in the 384-well polypropylene plate was then transferred to a 384-well Flashplate and the biotinylated peptides were allowed to bind to the streptavidin surface for at least 1 hour before being washed once with 0.1% Tween20 in a Biotek ELx405 plate washer. The plates were then read in a PerkinElmer TopCount plate reader to measure the quantity of ^3H-labeled peptide bound to the Flashplate surface, measured as disintegrations per minute (dpm) or alternatively, referred to as counts per minute (cpm).
Where dpm=disintegrations per minute, cmpd=signal in assay well, and min and max are the respective minimum and maximum signal controls.
Where top and bottom are the normally allowed to float, but may be fixed at 100 or 0 respectively in a 3-parameter fit. The Hill Coefficient normally allowed to float but may also be fixed at 1 in a 3-parameter fit. Y is the % inhibition and X is the compound concentration.

Row | Compound | IC50
1 | COCCn1cc(CN(C)CCN)c(-c2ccc(F)cc2)n1 [Compound 5] | > 10 µM
2 | COCCn1ncc(CN(C)CCN)c1-c1ccc(F)cc1 [Compound 6] | > 10 µM
3 | CCn1ncc(CN(C)CCNC)c1-c1ccc(F)cc1 [Compound 7] | 1.01 to 3 µM
4 | CCn1cc(CN(C)CCNC)c(-c2ccc(F)cc2)n1 [Compound 8] | 3.01 to 10 µM
5 | CN(CCN)Cc1c[nH]nc1-c1ccc(Cl)cc1 [Compound 95] | 0.101 to 1 µM
6 | CN(CCN)Cc1c[nH]nc1-c1ccc(OCC(F)(F)F)cc1 [Compound 96] | < 0.1 µM
7 | CC(C)Oc1ccc(-c2n[nH]cc2CN(C)CCN)cc1F [Compound 97] | 0.101 to 1 µM
8 | CN(CCN)Cc1c[nH]nc1-c1ccc(C2CCOCC2)cc1 [Compound 98] | 0.101 to 1 µM
9 | CN(CCN)Cc1c[nH]nc1-c1ccc(F)cc1F [Compound 99] | 3.01 to 10 µM
10 | CN(CCN)Cc1n[nH]cc1-c1ccc(C#N)cc1 [Compound 100] | 3.01 to 10 µM
11 | CC(C)c1ccc(-c2c[nH]nc2CN(C)CCN)cc1 [Compound 101] | 3.01 to 10 µM
12 | CN(CCN)Cc1n[nH]cc1-c1ccc(Cl)cc1 [Compound 102] | 1.01 to 3 µM
13 | CN(CCN)Cc1n[nH]cc1-c1ccc(C(F)(F)F)cc1 [Compound 103] | 1.01 to 3 µM
14 | CN(CCN)Cc1n[nH]cc1-c1ccc(C2CC2)cc1 [Compound 104] | 1.01 to 3 µM
15 | CN(CCN)Cc1n[nH]cc1-c1ccc(OC(F)(F)F)cc1 [Compound 105] | 3.01 to 10 µM
16 | CN(CCN)Cc1c[nH]nc1-c1cc(F)ccc1Cl [Compound 106] | > 10 µM
17 | COc1ccc(-c2n[nH]cc2CN(C)CCN)c(F)c1 [Compound 107] | 1.01 to 3 µM
18 | Cc1ccc(-c2n[nH]cc2CN(C)CCN)c(F)c1 [Compound 108] | 1.01 to 3 µM
19 | COc1ccccc1-c1n[nH]cc1CN(C)CCN [Compound 109] | 3.01 to 10 µM
20 | Cc1cc(C#N)ccc1-c1n[nH]cc1CN(C)CCN [Compound 110] | 3.01 to 10 µM
21 | CN(CCN)Cc1c[nH]nc1-c1cc(F)cc(F)c1 [Compound 111] | 0.101 to 1 µM
22 | CC(=O)c1cccc(-c2n[nH]cc2CN(C)CCN)c1 [Compound 112] | 1.01 to 3 µM
23 | CN(CCN)Cc1cnn(CC(O)CO)c1-c1ccc(F)cc1 (centres unmarked) [Compound 113] | > 10 µM
24 | CN(CCN)Cc1c[nH]nc1-c1ccc(OC2CC2)cc1 [Compound 114] | 0.101 to 1 µM

Row | Compound | IC50
25 | CC(O)c1ccc(-c2n[nH]cc2CN(C)CCN)cc1 (centres unmarked) [Compound 115] | 3.01 to 10 µM
26 | CN(CCN)Cc1c[nH]nc1-c1ccc(C2CC2)cc1 [Compound 116] | 1.01 to 3 µM
27 | CN(CCN)Cc1c[nH]nc1-c1ccc(C(F)(F)F)c(Cl)c1 [Compound 117] | 0.101 to 1 µM
28 | CN(CCN)Cc1c[nH]nc1-c1ccc(Cl)c(F)c1 [Compound 118] | 0.101 to 1 µM
29 | CN(CCN)Cc1n[nH]cc1-c1ccc(OC2CC2)cc1 [Compound 119] | 0.101 to 1 µM
30 | CN(CCN)Cc1c[nH]nc1-c1cc(F)cc(Cl)c1 [Compound 121] | 0.101 to 1 µM
31 | CN(CCN)Cc1c[nH]nc1-c1cccc(Cl)c1 [Compound 122] | 0.101 to 1 µM
32 | CN(CCN)Cc1c[nH]nc1-c1cccc(Cl)c1F [Compound 123] | 1.01 to 3 µM
33 | CN(CCN)Cc1c[nH]nc1-c1ccc(F)c(Cl)c1 [Compound 124] | 0.101 to 1 µM
34 | COc1ccc(-c2n[nH]cc2CN(C)CCN)cc1Cl [Compound 125] | 1.01 to 3 µM
35 | Cc1ccc(-c2n[nH]cc2CN(C)CCN)cc1Cl [Compound 126] | 0.101 to 1 µM
36 | COc1cc(Cl)cc(-c2n[nH]cc2CN(C)CCN)c1 [Compound 127] | 1.01 to 3 µM
37 | CN(CCN)Cc1cn(CC2CCOCC2)nc1-c1ccc(F)cc1 [Compound 128] | > 10 µM
38 | Cc1c(F)cccc1-c1n[nH]cc1CN(C)CCN [Compound 129] | 1.01 to 3 µM
39 | COc1cccc(-c2n[nH]cc2CN(C)CCN)c1 [Compound 130] | 1.01 to 3 µM
40 | Cc1cccc(-c2n[nH]cc2CN(C)CCN)c1 [Compound 131] | 1.01 to 3 µM
41 | CN(CCN)Cc1c[nH]nc1-c1ccc(Cl)cc1F [Compound 132] | 1.01 to 3 µM
42 | Cc1cc(Cl)ccc1-c1n[nH]cc1CN(C)CCN [Compound 133] | 3.01 to 10 µM
43 | COc1ccc(-c2n[nH]cc2CN(C)CCN)cc1F [Compound 134] | 1.01 to 3 µM
44 | CN(CCN)Cc1c[nH]nc1-c1ccc(C(F)(F)F)cc1Cl [Compound 135] | > 10 µM
45 | CCNC(=O)c1ccc(-c2n[nH]cc2CN(C)CCN)cc1 [Compound 136] | 1.01 to 3 µM
46 | CN(CCN)Cc1c[nH]nc1-c1cc(Cl)cc(Cl)c1 [Compound 137] | 0.101 to 1 µM
47 | CN(CCN)Cc1n[nH]cc1-c1ccc(OC(F)F)cc1 [Compound 138] | 1.01 to 3 µM
48 | CN(CCN1CCCC1)Cc1c[nH]nc1-c1ccc(C#N)cc1 [Compound 139] | > 10 µM

Row | Compound | IC50
49 | CN(CCN)Cc1c[nH]nc1-c1ccccc1C#N [Compound 140] | > 10 µM
50 | CN(CCN)Cc1c[nH]nc1-c1ccc(C(F)(F)F)c(F)c1 [Compound 141] | 1.01 to 3 µM
51 | COc1cc(-c2n[nH]cc2CN(C)CCN)ccc1F [Compound 142] | 1.01 to 3 µM
52 | CCN(CC)C(=O)c1ccc(-c2n[nH]cc2CN(C)CCN)cc1 [Compound 143] | 3.01 to 10 µM
53 | CC(C)Oc1ccc(-c2c[nH]nc2CN(C)CCN)cc1F [Compound 144] | 3.01 to 10 µM
54 | CN(CCN)Cc1n[nH]cc1-c1ccc(C2CCOCC2)cc1 [Compound 145] | 3.01 to 10 µM
55 | COc1ccc(-c2n[nH]cc2CN(C)CCN)c(Cl)c1 [Compound 146] | 3.01 to 10 µM
56 | CN(CCN)Cc1c[nH]nc1-c1cc(C#N)ccc1Cl [Compound 147] | > 10 µM
57 | CN(CCN)Cc1c[nH]nc1-c1ccc(C(F)(F)F)cc1F [Compound 148] | > 10 µM
58 | CN(CCN)Cc1c[nH]nc1-c1cccc(N(C)C)c1 [Compound 149] | 1.01 to 3 µM
59 | CCOC(=O)c1cccc(-c2n[nH]cc2CN(C)CCN)c1 [Compound 150] | 1.01 to 3 µM
60 | COc1cc(F)ccc1-c1n[nH]cc1CN(C)CCN [Compound 151] | 3.01 to 10 µM
61 | Cc1cc(F)ccc1-c1n[nH]cc1CN(C)CCN [Compound 152] | 3.01 to 10 µM
62 | COc1ccc(-c2n[nH]cc2CN(C)CCN)cc1 [Compound 153] | 1.01 to 3 µM
63 | COc1ccc(-c2n[nH]cc2CN(C)CCN)c(C(F)(F)F)c1 [Compound 154] | > 10 µM
64 | COc1ccc(-c2n[nH]cc2CN(C)CCN)c(C)c1 [Compound 155] | > 10 µM
65 | CN(CCN)Cc1c[nH]nc1-c1cc(Cl)ccc1F [Compound 156] | 3.01 to 10 µM
66 | COc1ccc(Cl)cc1-c1n[nH]cc1CN(C)CCN [Compound 157] | > 10 µM
67 | Cc1ccc(C#N)cc1-c1n[nH]cc1CN(C)CCN [Compound 158] | > 10 µM
68 | Cc1ccc(F)cc1-c1n[nH]cc1CN(C)CCN [Compound 159] | > 10 µM
69 | COc1ccc(F)cc1-c1n[nH]cc1CN(C)CCN [Compound 160] | > 10 µM
70 | Cc1ccccc1-c1n[nH]cc1CN(C)CCN [Compound 161] | 3.01 to 10 µM
71 | Cc1ccc(-c2n[nH]cc2CN(C)CCN)cc1 [Compound 162] | 0.101 to 1 µM

Source: US9346761B2, “Arginine methyltransferase inhibitors and uses thereof” (Epizyme, Inc., priority 2013, dated 2016)
